PubChem BioAssay (NCI)
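Results reflect a 48-hour exposure of cells in 96-well plates to compound at five concentrations. Definition used: TGI = concentration required for complete inhibition of growth.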

Test system: P388/ADR leukemia
Assay: NCI tumour cell line growth inhibition, 48 h

Work on `CO[C@@]12[C@H](COC(N)=O)C3=C(C(=O)C(C)=C(N)C3=O)N1C[C@@H]1N[C@@H]12` yielded a TGI of 16 µM.
